Legend:
Type in all cases: cell-based
H23 cells = test: Cell viability assay (CellTiter-Glo), H23 cells; details: Homo sapiens, NCI-H23, 72 h; H23 cells, 3 days incubation, CellTiter-Glo luminescence; read-out: Inhibition of Cancerous Cells IC50 H23
Description: (§1) H358, H23, SW48, and AsPC-1 cells were cultured in RPMI 1640 media supplemented with 10% fetal bovine serum, streptomycin, and penicillin. Lovo and SW480 cells were cultured in DMEM media supplemented with 10% fetal bovine serum, streptomycin, and penicillin. The cell lines were plated in their respective medium supplemented with 2.5% fetal bovine serum, streptomycin, and penicillin. All cell lines were plated in white walled 96-well plates at 2,000 cells/well or 384-well plates at 500 cells/well, except Lovo, which were plated at 4,000 or 1,000 cells/well, respectively. The cells were incubated in DMSO (control) or a compound for 3 days at 37° C. under 5% CO2. A CELLTITER-GLO® reagent (100 μL) was then added to each well. After a 10 min incubation with shaking, luminescence was measured using an ENVISION® multimode plate reader.

H358 cells (G12C) = test: Cell viability assay (CellTiter-Glo), H358 cells; details: Homo sapiens, NCI-H358, 72 h; H358 cells, 3 days incubation, CellTiter-Glo luminescence; read-out: Inhibition of Cancerous Cells IC50 H358 (G12C)
How it was run: (§2)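 Cells were grown in medium with 2.5% FBS at 2,000 cells/well (96-well) or 500 cells/well (384-well); Lovo were plated at 4,000 or 1,000. Compound exposure lasted 3 days at 37° C., 5% CO2. Viability was measured as CellTiter-Glo luminescence.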

Lovo cells (G13D) = test: Cell viability assay (CellTiter-Glo), Lovo cells; details: Homo sapiens, 72 h; Lovo cells, 3 days incubation, CellTiter-Glo luminescence; read-out: Inhibition of Cancerous Cells IC50 Lovo (G13D)
How it was run: as §2

SW480 cells (G12V) = test: Cell viability assay (CellTiter-Glo), SW480 cells; details: Homo sapiens, 72 h; SW480 cells, 3 days incubation, CellTiter-Glo luminescence; read-out: Inhibition of Cancerous Cells IC50 SW480 (G12V)
How it was run: as §2

SW48 cells (wt) = test: Cell viability assay (CellTiter-Glo), SW48 cells; details: Homo sapiens, 72 h; SW48 cells, 3 days incubation, CellTiter-Glo luminescence; read-out: Inhibition of Cancerous Cells IC50 SW48 (wt)
How it was run: as §2

AsPC-1 cells (G12D) = test: Cell viability assay (CellTiter-Glo), AsPC-1 cells; details: Homo sapiens, ASPC1, 72 h, 3 days incubation, CellTiter-Glo luminescence, read-out: Inhibition of Cancerous Cells IC50 AsPC-1 (G12D)
Description: as §1

| IC50 (H358 cells (G12C)) [nM] | IC50 (Lovo cells (G13D)) [nM] | IC50 (SW480 cells (G12V)) [nM] | IC50 (SW48 cells (wt)) [nM] | IC50 (AsPC-1 cells (G12D)) [nM] | Structure (SMILES) | IC50 (H23 cells) [nM] |
| --- | --- | --- | --- | --- | --- | --- |
| 7200 | – | – | – | – | COc1cc2c(N[C@H](C)c3cccc(Br)c3)nc(C)nc2cc1OCCOCCOCCOCCNc1cccc2c1C(=O)N(C1CCC(=O)NC1=O)C2=O (stereo partly drawn) [Compound A4, 4-((2-(2-(2-(2-((4-(((R)-1-(3-bromophenyl)ethyl)amino)-6-methoxy-2-methylquinazolin-7-yl)oxy)ethoxy)ethoxy)ethoxy)ethyl)amino)-2-(2,6-dioxopiperidin-3-yl)isoindoline-1,3-dione] | 9000 |
| 1400 | – | – | – | – | COc1cc2c(N[C@H](C)c3cccc(Br)c3)nc(C)nc2cc1OCCCCCCCCCN1CCC(c2cc(F)cc3c2CN(C2CCC(=O)NC2=O)C3=O)CC1 (stereo partly drawn) [Compound A12, 3-(4-(1-(9-((4-(((R)-1-(3-Bromophenyl)ethyl)amino)-6-methoxy-2-methyl-quinazolin-7-yl)oxy)nonyl)piperidin-4-yl)-6-fluoro-1-oxoisoindolin-2-yl)piperidine-2,6-dione] | 1200 |
| 3000 | – | – | – | – | COc1cc2c(N[C@H](C)c3cccc(Br)c3)nc(C)nc2cc1OC1CCN(CCCCN2CCC(c3cc(F)cc4c3CN(C3CCC(=O)NC3=O)C4=O)CC2)CC1 (stereo partly drawn) [Compound A18, 3-(4-(1-(4-(4-((4-(((R)-1-(3-Bromophenyl)ethyl)amino)-6-methoxy-2-methyl-quinazolin-7-yl)oxy)piperidin-1-yl)butyl)piperidin-4-yl)-6-fluoro-1-oxoisoindolin-2-yl)-piperidine-2,6-dione] | 2600 |
| 1700 | – | – | – | – | COc1cc2nc(C)nc(N[C@H](C)c3cccc(Br)c3)c2cc1OCCCCCCCN1CCC(c2cc(F)cc3c2CN(C2CCC(=O)NC2=O)C3=O)CC1 (stereo partly drawn) [Compound A19, 3-(4-(1-(7-((4-(((R)-1-(3-Bromophenyl)ethyl)amino)-7-methoxy-2-methyl-quinazolin-6-yl)oxy)heptyl)piperidin-4-yl)-6-fluoro-1-oxoisoindolin-2-yl)piperidine-2,6-dione] | 1900 |
| 790 | – | – | – | – | COc1cc2c(N[C@H](C)c3cccc(Br)c3)nc(C)nc2cc1OCCCCCCCN1CCC(c2cc3c(cc2F)C(=O)N(C2CCC(=O)NC2=O)C3)CC1 (stereo partly drawn) [Compound A22, 3-(5-(1-(7-((4-(((R)-1-(3-bromophenyl)ethyl)amino)-6-methoxy-2-methylquinazolin-7-yl)oxy)heptyl)piperidin-4-yl)-6-fluoro-1-oxoisoindolin-2-yl)piperidine-2,6-dione] | 900 |
| 8800 | – | – | – | – | COc1cc2c(N[C@H](C)c3cccc(Br)c3)nc(C)nc2cc1OCCOCCOCCNc1cccc2c1C(=O)N(C1CCC(=O)NC1=O)C2=O (stereo partly drawn) [Compound A36, 4-((2-(2-(2-((4-(((R)-1-(3-Bromophenyl)ethyl)amino)-6-methoxy-2-methyl-quinazolin-7-yl)oxy)ethoxy)ethoxy)ethyl)amino)-2-(2,6-dioxopiperidin-3-yl)isoindoline-1,3-dione] | 8300 |
| 1500 | – | – | – | – | COc1cc2c(N[C@H](C)c3cccc(Br)c3)nc(C)nc2cc1OCCCCCCCNCc1ccc(OCc2scc3c2CN(C2CCC(=O)NC2=O)C3=O)cc1 (stereo partly drawn) [Compound A41, 3-(1-((4-(((7-((4-(((R)-1-(3-Bromophenyl)ethyl)amino)-6-methoxy-2-methyl-quinazolin-7-yl)oxy)heptyl)amino)methyl)phenoxy)methyl)-4-oxo-4H-thieno[3,4-c]pyrrol-5(6H)-yl)piperidine-2,6-dione] | 1300 |
| 1200 | 730 | 960 | 1400 | 2700 | COc1cc2c(N[C@H](C)c3cccc(Br)c3)nc(C)nc2cc1OCCCCCCCCCCCCNC(=O)[C@H](CC(C)C)NC(=O)[C@@H](O)[C@H](N)Cc1ccccc1 [Compound B9, (S)-2-((2S,3R)-3-Amino-2-hydroxy-4-phenylbutanamido)-N-(12-((4-(((R)-1-(3-bromophenyl)ethyl)amino)-6-methoxy-2-methylquinazolin-7-yl)oxy)dodecyl)-4-methylpentanamide] | – |
| 1600 | 670 | 720 | 1300 | 1500 | CN[C@@H](C)C(=O)N[C@H](C(=O)N1C[C@@H](NC(=O)CCCCCCCCCCCCOc2cc3nc(C)nc(N[C@H](C)c4cccc(Br)c4)c3cc2OC)C[C@H]1C(=O)N[C@@H]1CCCc2ccccc21)C1CCCCC1 [Compound B10, (2S,4S)-4-(13-((4-(((R)-1-(3-Bromophenyl)ethyl)amino)-6-methoxy-2-methyl-quinazolin-7-yl)oxy)tridecanamido)-1-((S)-2-cyclohexyl-2-((S)-2-(methylamino)propanamido)-acetyl)-N—((R)-1,2,3,4-tetrahydronaphthalen-1-yl)pyrrolidine-2-carboxamide] | – |
| 530 | 390 | 360 | 530 | 960 | CN[C@@H](C)C(=O)N[C@H](C(=O)N1C[C@@H](NC(=O)CCCCCCCCCCOc2cc3nc(C)nc(N[C@H](C)c4cccc(Br)c4)c3cc2OC)C[C@H]1C(=O)N[C@@H]1CCCc2ccccc21)C1CCCCC1 [Compound B11, (2S,4S)-4-(11-((4-(((R)-1-(3-Bromophenyl)ethyl)amino)-6-methoxy-2-methyl-quinazolin-7-yl)oxy)undecanamido)-1-((S)-2-cyclohexyl-2-((S)-2-(methylamino)propanamido)-acetyl)-N—((R)-1,2,3,4-tetrahydronaphthalen-1-yl)pyrrolidine-2-carboxamide] | – |
| 1100 | 800 | 450 | 460 | 2700 | CN[C@@H](C)C(=O)N[C@H](C(=O)N1C[C@@H](NC(=O)CCCCCCCCOc2cc3nc(C)nc(N[C@H](C)c4cccc(Br)c4)c3cc2OC)C[C@H]1C(=O)N[C@@H]1CCCc2ccccc21)C1CCCCC1 [Compound B12, (2S,4S)-4-(9-((4-(((R)-1-(3-Bromophenyl)ethyl)amino)-6-methoxy-2-methyl-quinazolin-7-yl)oxy)nonanamido)-1-((S)-2-cyclohexyl-2-((S)-2-(methylamino)propanamido)-acetyl)-N—((R)-1,2,3,4-tetrahydronaphthalen-1-yl)pyrrolidine-2-carboxamide] | – |
| 15000 | – | – | – | – | COc1cc2c(N[C@H](C)c3cccc(Br)c3)nc(C)nc2cc1OCCCCCCCCC(=O)N[C@H](C(=O)N1C[C@H](O)C[C@H]1C(=O)NCc1ccc(-c2scnc2C)cc1)C(C)(C)C [Compound D2, (2S,4R)-1-((S)-2-(9-((4-(((R)-1-(3-bromophenyl)ethyl)amino)-6-methoxy-2-methylquinazolin-7-yl)oxy)nonanamido)-3,3-dimethylbutanoyl)-4-hydroxy-N-(4-(4-methylthiazol-5-yl)benzyl)pyrrolidine-2-carboxamide] | 13000 |
| 6100 | – | – | – | – | COc1cc2c(N[C@@H](C)c3cccs3)nc(C)nc2cc1OCCCCCCCCC(=O)N[C@H](C(=O)N1C[C@H](O)C[C@H]1C(=O)NCc1ccc(-c2scnc2C)cc1)C(C)(C)C [Compound D6, (2S,4R)-4-Hydroxy-1-((S)-2-(9-((6-methoxy-2-methyl-4-(((S)-1-(thiophen-2-yl)ethyl)amino)quinazolin-7-yl)oxy)nonanamido)-3,3-dimethylbutanoyl)-N-(4-(4-methylthiazol-5-yl)benzyl)pyrrolidine-2-carboxamide] | 2700 |
| 1600 | 2600 | 1200 | 5900 | > 10000 | COc1cc2c(N[C@H](C)c3cccc(Br)c3)nc(C)nc2cc1OCCCCCCCOc1cc(-c2scnc2C)ccc1CNC(=O)[C@@H]1C[C@@H](O)CN1C(=O)[C@@H](NC(C)=O)C(C)(C)C [Compound D11, (2S,4R)-1-((S)-2-Acetamido-3,3-dimethylbutanoyl)-N-(2-((7-((4-(((R)-1-(3-bromophenyl)ethyl)amino)-6-methoxy-2-methylquinazolin-7-yl)oxy)heptyl)oxy)-4-(4-methylthiazol-5-yl)benzyl)-4-hydroxypyrrolidine-2-carboxamide] | – |
| > 10000 | 640 | 3300 | > 10000 | > 10000 | COc1cc2c(N[C@H](C)c3cccc(Br)c3)nc(C)nc2cc1OCCCCCCCCCCCCCOc1cc(-c2scnc2C)ccc1CNC(=O)[C@@H]1C[C@@H](O)CN1C(=O)[C@@H](NC(C)=O)C(C)(C)C [Compound D14, (2S,4R)-1-((S)-2-Acetamido-3,3-dimethylbutanoyl)-N-(2-((13-((4-(((R)-1-(3-bromophenyl)ethyl)amino)-6-methoxy-2-methylquinazolin-7-yl)oxy)tridecyl)oxy)-4-(4-methyl-thiazol-5-yl)benzyl)-4-hydroxypyrrolidine-2-carboxamide] | – |

Reference: US20240025863A1, “SOS1 PROTEIN DEGRADERS, PHARMACEUTICAL COMPOSITIONS THEREOF, AND THEIR THERAPEUTIC APPLICATIONS” (BioTheryX, Inc., priority 2020, published 2024)
